Test system: Brewer's yeast-induced hyperalgesia (pain response)
Assay: Brewer's Yeast Hyperalgesia Assay in the rat
Format: in vivo, rat (female Sprague-Dawley)
Conditions: 3 mg/kg p.o.
Experimental: In this assay, which is sensitive to inhibition by lipoxygenase and cyclooxygenase inhibitors, compounds of formula I reduced the pain response induced by Brewer's yeast (Table 1a).
Groups of 10 female Sprague-Dawley rats, weighing 35-50 grams (Charles River Breeding Laboratories), were fasted overnight prior to testing. For each animal, 0.1 ml of the edema-inducing Brewer's yeast suspension (5% homogenate in physiological saline) was injected into the right hindpaw. Pain threshold was measured by applying pressure to the plantar surface of the hindpaw by means of a compressed air driven piston with a 2 mm. tip. Testing was carried out 3, 4, and 5 hours after the yeast injection. Compounds, prepared as homogenates in either 1% methylcellulose or aqueous vehicle, were administered orally 60 minutes before testing. A group of vehicle treated control animals was included in each experiment. Squeak pressure thresholds were measured and recorded for the compound and vehicle-treated groups of rats 3, 4, and 5 hours after administration of the Brewer's yeast (60 minutes after compound treatment). The estimation of analgesia was as follows: 1. the mean response pressure for the daily vehicle control group in the normal and inflammed foot was calculated; 2. for each compound treatment group, the number of animals with response pressures equal to or greater than 25 mm Hg was noted. These animals were considered to be analgesic.

COc1ccc(-c2sc3ncccc3c2O)cc1 [R=H, X1=H, X2=p-OCH3]
% Inhibition (yeast hyperalgesia): 60%

CC(=O)Oc1c(-c2ccccc2)sc2nc(Cl)ccc12 [R=(CO)CH3, X1=6-Cl, X2=H]
% Inhibition (yeast hyperalgesia): 40%
